Data reported in patent US12624018B1, “Inhibitors of RIPK2 and medical uses thereof” (Odyssey Therapeutics, Inc., priority 2022, dated 2026).

Columns and labels:
RIPK2 enzyme = target: T1, RIPK2 enzyme (Homo sapiens, UniProt O43353); assay: RIPK2 inhibition (ADP-Glo Kinase Assay); format: biochemical; conditions: RIPK2 5 nM, ATP 150 μM, MBP substrate, read-out: RIPK2 IC50
T1 construct: purchased Carna 09-128
Method in brief: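 Human RIPK2 (5 nM) preincubated with compound 30 min at room temperature in 50 mM HEPES pH 7.5, 10 mM MgCl2, 2 mM DTT, 1 mM EGTA, 0.01% Brij-35, 0.05% BSA; native swine MBP as substrate. ADP formed quantified by ADP-Glo luminescence; percent inhibition relative to DMSO and no-enzyme controls.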

human NOD2 signaling = assay: Inhibition of human NOD2 signaling in HEK-Blue-hNOD2 cells (L18-MDP stimulated, SEAP reporter); format: cell-based; conditions: Homo sapiens, HEK-Blue hNOD2, HEK-Blue-hNOD2 cells, NOD2 ligand stimulation, SEAP reporter; read-out: hNOD2 IC50
Method in brief: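 HEK-Blue-hNOD2 cells (HEK293 with NOD2 and SEAP reporter), 12500/well, treated with 10-point 3-fold compound dilutions plus L18-MDP 0.5 ng/mL final, 24 h at 37 °C. Supernatant SEAP read with QUANTI-Blue after 3 h at 620 nm; IC50 by 4-parameter fit vs DMSO±L18-MDP controls.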

T1 sequence (O43353 1-299 limits assumed): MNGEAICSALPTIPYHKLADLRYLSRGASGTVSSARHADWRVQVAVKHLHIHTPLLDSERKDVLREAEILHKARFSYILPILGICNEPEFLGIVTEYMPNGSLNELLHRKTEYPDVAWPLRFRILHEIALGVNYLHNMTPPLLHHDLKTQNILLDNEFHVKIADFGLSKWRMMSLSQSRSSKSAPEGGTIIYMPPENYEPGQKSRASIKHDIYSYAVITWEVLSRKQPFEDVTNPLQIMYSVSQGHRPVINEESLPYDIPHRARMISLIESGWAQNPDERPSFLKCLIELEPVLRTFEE

Row | SMILES | IC50 (RIPK2 enzyme) [nM] | IC50 (human NOD2 signaling) [nM]
1 | CNC(=O)c1cc2c(Oc3ccc(CC(=O)Nc4cnn(C(C)(C)C)c4)cc3C(F)F)ccnc2cc1OC [Compound 579, 4-(4-(2-((1-(tert-butyl)-1H-pyrazol-4-yl)amino)-2-oxoethyl)-2-(difluoromethyl)phenoxy)-7-methoxy-N-methylquinoline-6-carboxamide] | < 2.5 | 0.8
2 | [2H]C([2H])([2H])NC(=O)c1cc2c(Oc3ccc(CC(=O)Nc4cnn(C(C)(C)C)c4)cc3C(F)F)ccnc2cc1OC [Compound 580, 4-(4-(2-((1-(tert-butyl)-1H-pyrazol-4-yl)amino)-2-oxoethyl)-2-(difluoromethyl)phenoxy)-7-methoxy-N-(methyl-d3)quinoline-6-carboxamide] | < 2.5 | 1.2
3 | [2H]C([2H])([2H])NC(=O)c1cc2c(Oc3c(C)cc(CC(=O)Nc4cnn(C(C)(C)C)c4)cc3Cl)ccnc2cc1F [Compound 586, 4-(4-(2-((1-(tert-butyl)-1H-pyrazol-4-yl)amino)-2-oxoethyl)-2-chloro-6-methylphenoxy)-7-fluoro-N-(methyl-d3)quinoline-6-carboxamide] | < 2.5 | 0.6
4 | Cc1cc(CC(=O)Nc2cnn(C34CC(C3)C4)c2)cc(C)c1Oc1ccnc2ccc(C(N)=O)cc12 [Compound 587, 4-(4-(2-((1-(bicyclo[1.1.1]pentan-1-yl)-1H-pyrazol-4-yl)amino)-2-oxoethyl)-2,6-dimethylphenoxy)quinoline-6-carboxamide] | < 2.5 | 28.6
5 | CNC(=O)c1ccc2nccc(Oc3c(C)cc(CC(=O)Nc4cnn(C56CC(C5)C6)c4)cc3C)c2c1 [Compound 588, 4-(4-(2-((1-(bicyclo[1.1.1]pentan-1-yl)-1H-pyrazol-4-yl)amino)-2-oxoethyl)-2,6-dimethylphenoxy)-N-methylquinoline-6-carboxamide] | < 2.5 | 36

Further lines, results first:

Row | IC50 (RIPK2 enzyme) [nM] | IC50 (human NOD2 signaling) [nM] | SMILES
6 | < 2.5 | 48.6 | [2H]C([2H])([2H])NC(=O)c1ccc2nccc(Oc3c(C)cc(CC(=O)Nc4cnn(C56CC(C5)C6)c4)cc3C)c2c1 [Compound 589, 4-(4-(2-((1-(bicyclo[1.1.1]pentan-1-yl)-1H-pyrazol-4-yl)amino)-2-oxoethyl)-2,6-dimethylphenoxy)-N-(methyl-d3)quinoline-6-carboxamide]
7 | < 2.5 | 31.2 | Cc1cc(CC(=O)Nc2cnn(C34CC(C3)C4)c2)cc(Cl)c1Oc1ccnc2ccc(C(N)=O)cc12 [Compound 590, 4-(4-(2-((1-(bicyclo[1.1.1]pentan-1-yl)-1H-pyrazol-4-yl)amino)-2-oxoethyl)-2-chloro-6-methylphenoxy)quinoline-6-carboxamide]
8 | < 2.5 | 46.7 | CNC(=O)c1ccc2nccc(Oc3c(C)cc(CC(=O)Nc4cnn(C56CC(C5)C6)c4)cc3Cl)c2c1 [Compound 591, 4-(4-(2-((1-(bicyclo[1.1.1]pentan-1-yl)-1H-pyrazol-4-yl)amino)-2-oxoethyl)-2-chloro-6-methylphenoxy)-N-methylquinoline-6-carboxamide]
9 | 2.8 | 80.2 | [2H]C([2H])([2H])NC(=O)c1ccc2nccc(Oc3c(C)cc(CC(=O)Nc4cnn(C56CC(C5)C6)c4)cc3Cl)c2c1 [Compound 592, 4-(4-(2-((1-(bicyclo[1.1.1]pentan-1-yl)-1H-pyrazol-4-yl)amino)-2-oxoethyl)-2-chloro-6-methylphenoxy)-N-(methyl-d3)quinoline-6-carboxamide]
10 | < 2.5 | 0.7 | [2H]C([2H])([2H])C(n1cc(NC(=O)Cc2cc(C)c(Oc3ccnc4cc(F)c(C(=O)NC)cc34)cc2F)cn1)(C([2H])([2H])[2H])C([2H])([2H])[2H] [Compound 596, 7-fluoro-4-(5-fluoro-2-methyl-4-(2-((1-(2-(methyl-d3)propan-2-yl-1,1,1,3,3,3-d6)-1H-pyrazol-4-yl)amino)-2-oxoethyl)phenoxy)-N-methylquinoline-6-carboxamide]
